Test results: US20100105682A1, “CYCLOPROPYL-PIPERAZINE COMPOUNDS AS CALCIUM CHANNEL BLOCKERS” (priority 2006, published 2010)
Read-outs that look alike come from different tables or passages of the source.

Molecular target: T1, rat brain N-type calcium channel subunits (α1B+α2δ+β1b cDNA subunits) (Rattus norvegicus, UniProt Q02294)
T1 construct: expressed in transfected cells; host or cells: HEK 293 (human embryonic kidney), stably transfected; alternatively transiently transfected
Test: N-type calcium channel block, whole cell patch clamp in HEK 293 cells
Type: cell-based
Details: holding potential −80 mV to +10 mV
Procedure: N-type calcium channel blocking activity was assayed in human embryonic kidney cells, HEK 293, stably transfected with the rat brain N-type calcium channel subunits (α1B+α2δ+β1b cDNA subunits). Alternatively, N-type calcium channels (α1B+α2δ+β1b cDNA subunits), L-type channels (α1C+α2δ+β1b cDNA subunits) and P/Q-type channels (α1A+α2δ+β1b cDNA subunits) were transiently expressed in HEK 293 cells. Briefly, cells were cultured in Dulbecco's modified eagle medium (DMEM) supplemented with 10% fetal bovine serum, 200 U/ml penicillin and 0.2 mg/ml streptomycin at 37 with 5% CO2. At 85% confluency cells were split with 0.25% trypsin/1 mM EDTA and plated at 10% confluency on glass coverslips. At 12 hours the medium was replaced and the cells transiently transfected using a standard calcium phosphate protocol and the appropriate calcium channel cDNA's. Fresh DMEM was supplied and the cells transferred to 28° C./5% CO2. Cells were incubated for 1 to 2 days prior to whole cell recording.
Whole cell patch clamp experiments were performed using an Axopatch 200B amplifier (Axon Instruments, Burlingame, Calif.) linked to a personal computer equipped with pCLAMP software. The external and internal recording solutions contained, respectively, 5 mM BaCl2, 10 mM MgCl2, 10 mM HEPES, 40 mM TEACl, 10 mM glucose, 87.5 mM CsCl (pH 7.2) and 108 mM CsMS, 4 mM MgCl2, 9 mM EGTA, 9 mM HEPES (pH 7.2). Currents were typically elicited from a holding potential of −80 mV to +10 mV using Clampex software (Axon Instruments). Typically, currents were first elicited with low frequency stimulation (0.067 Hz) and allowed to stabilize prior to application of the compounds. The compounds were then applied during the low frequency pulse trains for two to three minutes to assess tonic block, and subsequently the pulse frequency was increased to 0.2 Hz to assess frequency dependent block. Data were analyzed using Clampfit (Axon Instruments) and SigmaPlot 4.0 (Jandel Scientific).

[1] = low frequency stimulation 0.067 Hz (tonic block), read-out: IC50 @ 0.067 Hz
[2] = pulse frequency 0.2 Hz (frequency dependent block), read-out: IC50 @ 0.2 Hz

T1 sequence (Q02294 whole entry): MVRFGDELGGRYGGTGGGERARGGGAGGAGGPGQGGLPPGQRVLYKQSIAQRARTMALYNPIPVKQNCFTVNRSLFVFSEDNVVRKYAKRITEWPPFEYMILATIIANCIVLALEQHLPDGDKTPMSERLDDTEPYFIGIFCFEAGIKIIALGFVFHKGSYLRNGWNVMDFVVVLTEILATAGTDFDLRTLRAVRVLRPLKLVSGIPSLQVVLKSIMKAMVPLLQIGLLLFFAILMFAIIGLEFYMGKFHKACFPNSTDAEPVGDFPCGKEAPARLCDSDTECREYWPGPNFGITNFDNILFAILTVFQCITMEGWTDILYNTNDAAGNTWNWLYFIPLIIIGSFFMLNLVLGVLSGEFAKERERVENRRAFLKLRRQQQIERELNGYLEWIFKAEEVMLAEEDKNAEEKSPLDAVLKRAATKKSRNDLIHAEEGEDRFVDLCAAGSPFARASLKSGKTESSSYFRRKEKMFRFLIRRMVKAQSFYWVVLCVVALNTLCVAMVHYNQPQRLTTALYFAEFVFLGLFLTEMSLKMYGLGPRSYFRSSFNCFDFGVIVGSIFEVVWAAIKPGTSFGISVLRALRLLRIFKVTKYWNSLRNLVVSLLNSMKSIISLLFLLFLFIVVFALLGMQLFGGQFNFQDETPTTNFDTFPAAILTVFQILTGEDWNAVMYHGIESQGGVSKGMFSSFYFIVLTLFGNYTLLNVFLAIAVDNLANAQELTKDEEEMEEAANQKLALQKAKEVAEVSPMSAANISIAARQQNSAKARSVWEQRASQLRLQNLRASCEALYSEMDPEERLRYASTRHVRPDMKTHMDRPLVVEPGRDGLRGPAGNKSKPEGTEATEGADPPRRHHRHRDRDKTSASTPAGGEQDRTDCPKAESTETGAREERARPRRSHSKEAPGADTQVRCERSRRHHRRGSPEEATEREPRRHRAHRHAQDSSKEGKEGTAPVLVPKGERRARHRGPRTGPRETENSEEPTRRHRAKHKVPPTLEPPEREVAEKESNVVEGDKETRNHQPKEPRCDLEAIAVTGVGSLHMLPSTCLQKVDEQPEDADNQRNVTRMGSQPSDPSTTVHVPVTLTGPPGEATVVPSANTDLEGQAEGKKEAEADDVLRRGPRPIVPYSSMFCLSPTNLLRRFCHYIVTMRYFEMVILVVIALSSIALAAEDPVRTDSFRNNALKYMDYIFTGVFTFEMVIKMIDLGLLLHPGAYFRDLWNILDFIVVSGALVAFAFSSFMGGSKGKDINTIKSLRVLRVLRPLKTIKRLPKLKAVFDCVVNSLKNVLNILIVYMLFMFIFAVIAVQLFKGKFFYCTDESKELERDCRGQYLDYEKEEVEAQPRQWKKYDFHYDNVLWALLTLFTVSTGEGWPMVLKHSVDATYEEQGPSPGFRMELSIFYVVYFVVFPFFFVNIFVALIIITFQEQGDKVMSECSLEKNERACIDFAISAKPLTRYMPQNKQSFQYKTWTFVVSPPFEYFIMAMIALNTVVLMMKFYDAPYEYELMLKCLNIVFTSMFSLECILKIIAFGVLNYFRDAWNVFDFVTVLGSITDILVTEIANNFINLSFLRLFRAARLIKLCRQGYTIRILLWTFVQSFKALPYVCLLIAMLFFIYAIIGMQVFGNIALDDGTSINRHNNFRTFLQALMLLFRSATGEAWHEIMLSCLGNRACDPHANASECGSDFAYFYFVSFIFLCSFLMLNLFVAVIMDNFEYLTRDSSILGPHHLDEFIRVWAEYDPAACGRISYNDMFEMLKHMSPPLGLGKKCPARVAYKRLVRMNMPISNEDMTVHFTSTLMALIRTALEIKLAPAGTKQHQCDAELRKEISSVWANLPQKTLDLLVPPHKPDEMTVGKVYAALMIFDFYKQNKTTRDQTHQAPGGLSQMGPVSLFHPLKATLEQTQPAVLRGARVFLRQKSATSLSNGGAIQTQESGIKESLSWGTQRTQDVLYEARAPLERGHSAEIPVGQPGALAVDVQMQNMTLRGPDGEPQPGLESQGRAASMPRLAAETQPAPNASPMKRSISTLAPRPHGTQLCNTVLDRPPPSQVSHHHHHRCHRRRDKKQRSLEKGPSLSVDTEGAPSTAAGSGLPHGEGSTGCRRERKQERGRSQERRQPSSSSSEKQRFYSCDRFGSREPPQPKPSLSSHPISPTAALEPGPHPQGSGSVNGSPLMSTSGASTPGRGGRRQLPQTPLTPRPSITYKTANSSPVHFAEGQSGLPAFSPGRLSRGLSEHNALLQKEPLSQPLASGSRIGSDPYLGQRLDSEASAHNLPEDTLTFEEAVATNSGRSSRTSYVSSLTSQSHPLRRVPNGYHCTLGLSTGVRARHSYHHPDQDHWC
T1 sequence (P54290 25-944 partner limits assumed): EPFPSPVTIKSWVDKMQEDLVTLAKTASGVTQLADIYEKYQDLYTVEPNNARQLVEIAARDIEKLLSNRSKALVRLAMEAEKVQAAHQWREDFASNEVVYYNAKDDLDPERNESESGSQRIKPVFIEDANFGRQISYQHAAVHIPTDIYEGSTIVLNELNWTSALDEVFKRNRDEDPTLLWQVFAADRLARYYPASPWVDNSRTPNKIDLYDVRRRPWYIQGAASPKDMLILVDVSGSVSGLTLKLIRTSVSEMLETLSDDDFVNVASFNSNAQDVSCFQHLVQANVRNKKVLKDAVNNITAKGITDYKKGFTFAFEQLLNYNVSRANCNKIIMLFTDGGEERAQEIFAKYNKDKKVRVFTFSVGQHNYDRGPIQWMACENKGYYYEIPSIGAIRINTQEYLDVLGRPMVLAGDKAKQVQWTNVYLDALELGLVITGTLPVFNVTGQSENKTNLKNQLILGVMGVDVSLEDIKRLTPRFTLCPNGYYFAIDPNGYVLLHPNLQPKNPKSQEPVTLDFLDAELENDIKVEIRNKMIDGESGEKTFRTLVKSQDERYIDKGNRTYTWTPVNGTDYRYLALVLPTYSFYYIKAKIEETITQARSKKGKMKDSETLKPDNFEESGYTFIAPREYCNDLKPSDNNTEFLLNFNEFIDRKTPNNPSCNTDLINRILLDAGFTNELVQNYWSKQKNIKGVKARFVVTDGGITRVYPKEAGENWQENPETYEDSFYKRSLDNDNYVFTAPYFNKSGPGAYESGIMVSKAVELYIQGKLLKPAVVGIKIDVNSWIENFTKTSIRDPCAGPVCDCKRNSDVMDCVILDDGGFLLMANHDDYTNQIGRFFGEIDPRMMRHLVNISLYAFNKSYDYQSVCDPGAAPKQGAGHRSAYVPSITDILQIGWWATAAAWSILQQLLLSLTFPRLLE
T1 sequence (P54290 945-1091 partner limits assumed): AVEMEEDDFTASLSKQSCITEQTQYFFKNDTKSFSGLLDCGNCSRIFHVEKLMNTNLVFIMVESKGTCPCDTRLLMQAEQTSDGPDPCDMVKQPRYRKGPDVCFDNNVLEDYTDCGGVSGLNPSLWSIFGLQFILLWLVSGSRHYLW
T1 sequence (P54283 whole entry partner): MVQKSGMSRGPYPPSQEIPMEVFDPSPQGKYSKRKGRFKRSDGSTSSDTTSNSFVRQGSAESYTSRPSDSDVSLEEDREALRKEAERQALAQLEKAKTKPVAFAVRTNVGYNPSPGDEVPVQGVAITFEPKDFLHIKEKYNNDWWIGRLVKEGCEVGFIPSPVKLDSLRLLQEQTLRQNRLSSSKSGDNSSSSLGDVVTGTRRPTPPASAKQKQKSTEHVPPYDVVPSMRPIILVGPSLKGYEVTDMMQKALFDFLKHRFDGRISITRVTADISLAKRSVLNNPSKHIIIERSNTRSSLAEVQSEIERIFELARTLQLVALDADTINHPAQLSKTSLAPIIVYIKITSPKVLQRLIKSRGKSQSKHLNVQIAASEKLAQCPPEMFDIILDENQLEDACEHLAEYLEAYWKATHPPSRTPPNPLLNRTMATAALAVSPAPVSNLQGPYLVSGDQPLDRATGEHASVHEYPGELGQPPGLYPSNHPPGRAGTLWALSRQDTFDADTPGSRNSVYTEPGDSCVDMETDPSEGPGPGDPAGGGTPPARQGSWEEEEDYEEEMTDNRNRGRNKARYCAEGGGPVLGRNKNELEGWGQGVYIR

Row | Compound | IC50 [1] | IC50 [2]
1 | O=C(C1CC1C(=O)N1CCN(C(c2ccccc2)c2ccccc2)CC1)N1CCN(C(c2ccccc2)c2ccccc2)CC1 (centres unmarked) [Compound 1] | 160 nM | 150 nM
2 | O=C(C1CC1C(=O)N1CCN(C(c2ccccc2)c2ccccc2)CC1)N1CCN(c2ccccc2)CC1 (centres unmarked) [Compound 2, (4-benzhydrylpiperazin-1-yl)(2-(4-phenylpiperazine-1-carbonyl)cyclopropyl)methanone] | 440 nM | 310 nM
3 | CN1CCN(C(=O)C2CC2C(=O)N2CCN(C(c3ccccc3)c3ccccc3)CC2)CC1 (centres unmarked) [Compound 3, (4-benzhydrylpiperazin-1-yl)(2-(4-methylpiperazine-1-carbonyl)cyclopropyl)methanone] | 2500 nM | 1500 nM
4 | O=C(C1CC1C(=O)N1CCN(C(c2ccccc2)c2ccccc2)CC1)N1CCC(N2CCOCC2)CC1 (centres unmarked) [Compound 4, (4-benzhydrylpiperazin-1-yl)(2-(4-morpholinopiperadine-1-carbonyl)cyclopropyl)methanone] | > 5830 nM | > 3950 nM
5 | O=C(Nc1ccccc1)C1CC1C(=O)N1CCN(C(c2ccccc2)c2ccccc2)CC1 (centres unmarked) [Compound 6, 2-(4-benzhydrylpiperazine-1-carbonyl)-N-phenylcyclopropanecarboxamide] | 3200 nM | 1900 nM
6 | COCCN1CCN(C(=O)C2CC2C(=O)N2CCN(C(c3ccccc3)c3ccccc3)CC2)CC1 (centres unmarked) [Compound 7] | 2000 nM | 1500 nM
7 | O=C(C1CC1C(=O)N1CCN(C(c2ccccc2)c2ccccc2)CC1)N1CCN(c2ccccc2F)CC1 (centres unmarked) [Compound 8, (4-benzhydrylpiperazin-1-yl)(2-(4-(2-fluorophenyl)piperazine-1-carbonyl)cyclopropyl)methanone] | 940 nM | 530 nM
8 | COc1ccccc1N1CCN(C(=O)C2CC2C(=O)N2CCN(C(c3ccccc3)c3ccccc3)CC2)CC1 (centres unmarked) [Compound 9, (4-benzhydrylpiperazin-1-yl)(2-(4-(2-methoxyphenyl)piperazine-1-carbonyl)cyclopropyl)methanone] | 630 nM | 430 nM
9 | CC(NC(=O)C1CC1C(=O)N1CCN(C(c2ccccc2)c2ccccc2)CC1)c1ccccc1 (centres unmarked) [Compound 10, 2-(4-benzhydrylpiperazine-1-carbonyl)-N-(1-phenylethyl)cyclopropane carboxamide] | 1550 nM | 970 nM
10 | CC(C)(C)C1CCC(NC(=O)C2CC2C(=O)N2CCN(C(c3ccccc3)c3ccccc3)CC2)CC1 (centres unmarked) [Compound 11, 2-(4-benzhydrylpiperazine-1-carbonyl)-N-(4-tert-butylcyclohexyl)cyclopropane carboxamide] | 90 nM | 80 nM
11 | CC1CCC(NC(=O)C2CC2C(=O)N2CCN(C(c3ccccc3)c3ccccc3)CC2)CC1 (centres unmarked) [Compound 12, 2-(4-benzhydrylpiperazine-1-carbonyl)-N-(4-methylcyclohexyl)cyclopropane carboxamide] | 180 nM | 120 nM
12 | CC1CN(C(=O)C2CC2C(=O)N2CCN(C(c3ccccc3)c3ccccc3)CC2)CC(C)N1 (centres unmarked) [Compound 13, (4-benzhydrylpiperazin-1-yl)(2-(3,5-dimethylpiperazine-1-carbonyl)cyclopropyl)methanone] | 710 nM | 440 nM
13 | CC(C)N(C(=O)C1CC1C(=O)N1CCN(C(c2ccccc2)c2ccccc2)CC1)C(C)C (centres unmarked) [Compound 14, 2-(4-benzhydrylpiperazine-1-carbonyl)-N,N-diisopropylcyclopropane carboxamide] | 1560 nM | 860 nM
14 | CC(C)(C)N1CCN(C(=O)C2CC2C(=O)N2CCN(C(c3ccccc3)c3ccccc3)CC2)CC1 (centres unmarked) [Compound 15, (4-benzhydrylpiperazin-1-yl)(2-(4-tert-butylpiperazine-1-carbonyl)cyclopropyl) methanone] | 8530 nM | 6860 nM
15 | CNC1CCN(C(=O)C2CC2C(=O)N2CCN(C(c3ccccc3)c3ccccc3)CC2)CC1 (centres unmarked) [Compound 16, (4-benzhydrylpiperazin-1-yl)(2-(4-(methylamino)piperadine-1-carbonyl)cyclopropyl)methanone] | 12500 nM | 6790 nM
16 | CC1CCC(CN2CCN(C(=O)C3CC3C(=O)N3CCN(C(c4ccccc4)c4ccccc4)CC3)CC2)CC1 (centres unmarked) [Compound 18, (4-benzhydrylpiperazin-1-yl)(2-(4-((4-methylcyclohexyl)methyl)piperazine-1-carbonyl)cyclopropyl)methanone] | 690 nM | 440 nM
